From patent US20100113268A1, “SYNERGISTIC ACTIVE COMPOUND COMBINATIONS” (priority 2006, published 2010)

Test system: Meloidogyne incognita
Assay: Meloidogyne incognita test (MELGIN), gall formation on lettuce roots in soil
Format: in vivo
Conditions: single active compound, 100% = no galls, 0% = galls as untreated control
Experimental: Meloidogyne incognita Test (MELGIN)
To produce a suitable preparation of active compound, 1 part by weight of active compound is mixed with the stated amounts of solvent and emulsifier, and the concentrate is diluted with water to the desired concentration.
Vessels are filled with soil, solution of active compound, Meloidogyne incognita egg/larvae suspension and lettuce seeds. The lettuce seeds germinate and plants develop. On the roots, galls are formed.
After the desired period of time, the nematicidal action is determined in % by the formation of galls. 100% means that no galls have been found; 0% means that the number of galls on the treated plants corresponds to that of the untreated control.

Row | Structure (SMILES) | Kill in % after 21 d (2 ppm) [%] | Kill in % after 21 d (0.125 ppm) [%]
1 | CN/C(=N\[N+](=O)[O-])NCc1cnc(Cl)s1 [Clothianidin] | 0 | –
2 | O=[N+]([O-])/N=C1\NCCN1Cc1ccc(Cl)nc1 [Imidacloprid] | 0 | –
3 | CNC(=O)O/N=C(\SC)C(=O)N(C)C [Oxamyl, oxamyl] | – | 24
